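Each compound was tested at five concentrations against cells in 96-well plates for 48 hours. GI50 = concentration required for 50% inhibition of growth.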 Calls of active or inactive are those of the source. Cut-off read from the data, not from the text of the source: active = GI50 up to about 1.1 µM and inactive = higher.

Some test systems named below: ACHN; BT-549; CCRF-CEM; HCT-116; HCT-15; HL-60; HOP-62; K562; MDA-MB-435; NCI-H23; NCI/ADR-RES; OVCAR-8; SF-539; SK-MEL-28; SN12C; T47D; UO-31; SF-295.
Assay in all cases: NCI-60 cell line screen, 48 h

Take `COc1cc([N+](=O)[O-])c(S(=O)(=O)O)cc1N`: the GI50 is > 100 µM (inactive) with ACHN; > 100 µM (inactive) with BT-549; > 100 µM (inactive) with CCRF-CEM; > 100 µM (inactive) with HCT-116; above 100 µM in the assay on HCT-15; > 100 µM (inactive) in the assay with HL-60. In addition, the GI50 in the assay on HOP-62, with K562, in the assay with MDA-MB-435, in the assay with NCI-H23, in the assay on NCI/ADR-RES and with OVCAR-8 was > 100 µM (inactive) throughout. Also, the GI50 with SF-539, in the assay on SK-MEL-28, in the assay with SN12C, with T47D and with UO-31 was > 100 µM (inactive) in each case.

As for `S=C(N/N=C(/c1ccccc1)c1ccccn1)N1CCCCCC1`, the GI50 in the assay on ACHN is < 0.0421 µM (active); in the assay with BT-549 it was 0.564 µM (active); with CCRF-CEM it was < 0.0133 µM (active); in the assay on HCT-116, 0.01 µM (active); with HCT-15 it was below 0.0213 µM; in the assay with HL-60, < 0.0103 µM (active). For the same compound, the GI50 in the assay with HOP-62 was 0.0514 µM (active); in the assay on K562 it was < 0.0115 µM (active); with MDA-MB-435, 0.0843 µM (active); in the assay with NCI-H23 it was 0.0538 µM (active); in the assay with NCI/ADR-RES, < 0.0194 µM (active); in the assay with OVCAR-8, < 0.0256 µM (active). The GI50 in the assay with SF-295 was < 0.0374 µM (active); with SF-539, 0.198 µM (active); with T47D, 0.0843 µM (active); in the assay with UO-31 it was 0.0904 µM (active).

`COC(=O)CP1(=O)OC2C(C3CCC2(C)C3(C)C)N1c1cc(C(F)(F)F)cc(C(F)(F)F)c1` (stereo not given): the GI50 in the assay on ACHN was > 100 µM (inactive); in the assay with BT-549, 27.2 µM (inactive); in the assay on HCT-116 it was 12.6 µM (inactive); with HCT-15, 24.4 µM; in the assay on HOP-62 it was 31.2 µM (inactive); in the assay with K562, 19.5 µM (inactive). Moreover, the GI50 was 22.1 µM (inactive) in the assay on MDA-MB-435; 26.6 µM (inactive) in the assay with NCI-H23; 20.6 µM (inactive) in the assay with NCI/ADR-RES; 36.1 µM (inactive) in the assay on OVCAR-8; 19.7 µM (inactive) in the assay on SF-295; 21.9 µM (inactive) in the assay with SF-539. For the same compound, the results for the GI50 with SK-MEL-28, in the assay on T47D and in the assay with UO-31 were 42.9 µM (inactive), 19.1 µM (inactive) and 32.9 µM (inactive), respectively.

For the compound `CC(=O)OCC1OC(O[C@@H]2C[C@H]3C(C)(C)[C@@H](OC(C)=O)CC[C@]3(C)[C@H]3CC[C@]45C[C@]4(CC[C@H]5[C@@H](C)C[C@@H](O)[C@H](O)C(C)(C)F)[C@@]32C)C(O)C(O)C1O` (stereo not given in full), the GI50 was 37.5 µM (inactive) with ACHN; 1.72 µM (inactive) with BT-549; 1.21 µM (inactive) in the assay on CCRF-CEM; 1.56 µM (inactive) with HCT-116; 2.48 µM with HCT-15; 1.09 µM (active) in the assay with HL-60. Besides, the GI50 was 50 µM (inactive) in the assay on HOP-62; 1.6 µM (inactive) in the assay on K562; 8.04 µM (inactive) in the assay on MDA-MB-435; 2.22 µM (inactive) in the assay with NCI-H23; 10.5 µM (inactive) with NCI/ADR-RES; 2.34 µM (inactive) with OVCAR-8. The GI50 with SF-295 is 24.7 µM (inactive); in the assay on SF-539 it was 1.81 µM (inactive); in the assay on SK-MEL-28, 1.63 µM (inactive); with SN12C it was 1.73 µM (inactive); in the assay on T47D, > 100 µM (inactive).

Regarding `COc1cc(C(=O)C2C(=O)c3ccccc3C2C2(O)c3ccccc3CC2C(O)c2cc(OC)c(OC)c(OC)c2)cc(OC)c1OC` (stereo not given), the GI50 in the assay on ACHN is > 100 µM (inactive); in the assay on BT-549, > 100 µM (inactive); with HCT-116, > 100 µM (inactive); in the assay on HCT-15, above 100 µM; in the assay with HOP-62, 17.6 µM (inactive); with K562, > 100 µM (inactive). The GI50 was > 100 µM (inactive) in the assay with MDA-MB-435; > 100 µM (inactive) in the assay on NCI-H23; > 100 µM (inactive) in the assay with NCI/ADR-RES; 62.4 µM (inactive) in the assay on OVCAR-8; 74.6 µM (inactive) in the assay on SF-295; 37.2 µM (inactive) in the assay with SF-539. For the same compound, the GI50 with SK-MEL-28, in the assay on SN12C, in the assay on T47D and with UO-31 was > 100 µM (inactive) each time.

`COc1ccc(C(=O)N2CCc3c([nH]c4ccccc34)C2C(=O)O)o1` (stereo not given): the GI50 in the assay with ACHN is > 10 µM (inactive); in the assay with BT-549 it was > 10 µM (inactive); in the assay with CCRF-CEM, > 10 µM (inactive); with HCT-116, > 10 µM (inactive); in the assay on HCT-15, above 10 µM; in the assay with HL-60 it was > 10 µM (inactive). Also, the GI50 in the assay on HOP-62, in the assay with K562, in the assay with MDA-MB-435, with NCI/ADR-RES, in the assay with OVCAR-8 and with SF-295 was > 10 µM (inactive) in each case. Moreover, the GI50 with SF-539, in the assay on SK-MEL-28, in the assay on SN12C and with T47D was > 10 µM (inactive) in each case.

With `Nc1cccc(C#Cc2cccc(C#Cc3cccc(N)n3)n2)n1`, the GI50 with ACHN is > 100 µM (inactive); in the assay on BT-549 it was > 100 µM (inactive); in the assay on CCRF-CEM, 5.85 µM (inactive); in the assay on HCT-116 it was > 100 µM (inactive); in the assay with HCT-15, above 100 µM; with HOP-62, > 100 µM (inactive). The GI50 was > 100 µM (inactive) in the assay with K562; 89.9 µM (inactive) with MDA-MB-435; > 100 µM (inactive) in the assay with NCI-H23; > 100 µM (inactive) in the assay on NCI/ADR-RES; > 100 µM (inactive) in the assay on OVCAR-8; 66.7 µM (inactive) in the assay with SF-295. The GI50 was 39.9 µM (inactive) in the assay with SF-539, 79.3 µM (inactive) in the assay with SN12C, 76.9 µM (inactive) in the assay on T47D and > 100 µM (inactive) with UO-31.

For the compound `Nc1ccc(S(=O)(=O)c2ccc(NC(=O)c3cccnc3)cc2)cc1`, the GI50 with ACHN is > 100 µM (inactive); in the assay with BT-549, 92 µM (inactive); in the assay on HCT-116, > 100 µM (inactive); in the assay with HCT-15, above 100 µM; with HL-60 it was 45.1 µM (inactive); in the assay with HOP-62, > 100 µM (inactive). In addition, the GI50 with K562 is 78 µM (inactive); with MDA-MB-435, > 100 µM (inactive); in the assay on NCI-H23 it was > 100 µM (inactive); in the assay with NCI/ADR-RES, > 100 µM (inactive); with OVCAR-8 it was > 100 µM (inactive); in the assay on SF-295, > 100 µM (inactive). Moreover, the GI50 with SK-MEL-28 is > 100 µM (inactive); in the assay with SN12C, > 100 µM (inactive); in the assay on T47D it was 36.8 µM (inactive); with UO-31, > 100 µM (inactive).

With `CCCCSCc1nc2nc(Cl)c(Cl)nc2[nH]1`, the GI50 is 23.9 µM (inactive) with ACHN; 27.1 µM (inactive) in the assay with BT-549; 11.3 µM (inactive) in the assay with CCRF-CEM; 19.5 µM (inactive) in the assay on HCT-116; 23.4 µM in the assay with HCT-15; 16.1 µM (inactive) with HOP-62. Further, the GI50 in the assay on K562 is 24 µM (inactive); in the assay on MDA-MB-435, 33.5 µM (inactive); in the assay with NCI-H23 it was 16.8 µM (inactive); with NCI/ADR-RES, 27 µM (inactive); in the assay with OVCAR-8, 34.9 µM (inactive); in the assay on SF-295, 14.5 µM (inactive). Besides, the GI50 with SF-539 was 50.2 µM (inactive); in the assay on SK-MEL-28, 23 µM (inactive); with SN12C, 22.1 µM (inactive); in the assay with T47D it was 15.7 µM (inactive).

For the compound `COc1ccc(CCCNC(=O)Cc2ccccc2CO)cc1OC`, the GI50 with ACHN is > 100 µM (inactive); in the assay with BT-549 it was > 100 µM (inactive); with CCRF-CEM it was > 100 µM (inactive); in the assay on HCT-116, > 100 µM (inactive); in the assay on HCT-15 it was above 100 µM; in the assay with HL-60, > 100 µM (inactive). Moreover, the GI50 in the assay with HOP-62, in the assay with K562, in the assay on MDA-MB-435, with NCI-H23, in the assay on NCI/ADR-RES and in the assay on OVCAR-8 was > 100 µM (inactive) throughout. In addition, the GI50 with SK-MEL-28, in the assay on SN12C, with T47D and with UO-31 was > 100 µM (inactive) in each case.

As for `Nc1ccc(-c2ncc3cc(-c4cccc(-c5cc6cnc(-c7ccc(N)cc7)nc6c6ccccc56)c4)c4ccccc4c3n2)cc1`, the GI50 was > 100 µM (inactive) in the assay on ACHN; > 100 µM (inactive) in the assay with BT-549; > 100 µM (inactive) in the assay on CCRF-CEM; > 100 µM (inactive) in the assay with HCT-116; above 100 µM in the assay with HCT-15; > 100 µM (inactive) in the assay on HOP-62. Also, the GI50 in the assay on K562, in the assay with MDA-MB-435, with NCI-H23, in the assay on NCI/ADR-RES, in the assay on OVCAR-8 and in the assay on SF-295 was > 100 µM (inactive) throughout. Moreover, the GI50 with SF-539, in the assay with SK-MEL-28, in the assay with SN12C, in the assay on T47D and in the assay on UO-31 was > 100 µM (inactive) in each case.

For `Cc1cccc(C)c1NC(=O)/C(Cc1nc2ccc([N+](=O)[O-])cc2nc1O)=N\NC(N)=O`, the GI50 was 94 µM (inactive) in the assay with ACHN; 7.19 µM (inactive) with BT-549; 19.6 µM (inactive) in the assay on CCRF-CEM; 83.2 µM (inactive) in the assay with HCT-116; above 100 µM in the assay with HCT-15; 32.5 µM (inactive) with HL-60. Besides, the GI50 in the assay on K562 is 39.7 µM (inactive); in the assay with MDA-MB-435, 98.2 µM (inactive); in the assay on NCI-H23, > 100 µM (inactive); in the assay on NCI/ADR-RES it was 85.5 µM (inactive); in the assay on OVCAR-8, > 100 µM (inactive); in the assay on SF-295, > 100 µM (inactive). Moreover, the GI50 was > 100 µM (inactive) in the assay on SF-539; > 100 µM (inactive) in the assay with SK-MEL-28; > 100 µM (inactive) with SN12C; > 100 µM (inactive) in the assay on T47D; 45.3 µM (inactive) in the assay with UO-31.
